Experimental data from US8592419B2, “Ceramides and apoptosis-signaling ligand” (MUSC Foundation for Research Development, priority 2004, dated 2013).

Columns and labels:
Type in all cases: cell-based, human
[1] = tested on: cathepsin B; test: Cathepsin B translocation to cytosol (subcellular fractionation, Western blot, activity assay); conditions: DU145 cells
Procedure: Subcellular fractionation. For cytochrome c immunoblot, cells were seeded and treated as described above. Cells were harvested at 4, 12, or 24 hours after treatment as described previously (62) and proteins (15 μg) were separated by gel electrophoresis and immunoblotted for cytochrome c as above. The protocol for separating cytosolic and heavy membrane fractions is a modified version of that used by Desahger et al. (63). Briefly, cells were seeded and treated in 60 mm plates as described above. Cells were harvested at 0, 0.5, 1, and 2 hours after treatment, washed once in PBS, and gently resuspended in isotonic mitochondrial buffer (210 mM mannitol, 70 mM sucrose, 1 mM EDTA, 10 mM HEPES, pH 7.0) supplemented with protease inhibitors. Cells were then transferred to 1.5 mL microcentrifuge tubes and homogenized using 40 strokes with a polished (fine grain sandpaper) Teflon pestle. Fractions were separated using differential centrifugation as described in the reference. All fractions were stored at −80° C. Cytosolic and heavy membrane fractions (30 and 15 μg, respectively) were separated on NuPAGE gels and immunoblotted as described above. […] Enzyme activity per 50 μg lysate was measured using the fluorogenic cathepsin B substrate 111 (Calbiochem) according to the manufacturer's protocol.

[2] = tested on: AC mRNA; test: Reverse transcriptase PCR of AC mRNA; conditions: 10 μM, DU145 cells
Procedure: Reverse Transcriptase PCR. DU145 cells were seeded in 6-well plates as described above. […] Cells were collected at indicated time points and total RNA was extracted using RNAqueous-4PCR kit (Ambion Inc.; Austin, TX), including the DNase I treatment step to remove DNA contamination. The level of transcripts of AC was assayed by two-step RT-PCR protocol (Ambion) and Rig/S15 was used as an internal control. The sequence of the primer for amplification of AC is as followed: [NT] 375 bp. All reactions were performed in a programmable thermal cycler (reverse transcription at 55° C. for 1 hour; PCR at 95° C., 3 minutes; 95° C., 30 second; 52° C., 1 minute and extension at 72° C. for 1 minute; final extension at 72° C., 10 minutes).

[3] = tested on: five different PCa cell lines; test: MTS cell viability assay, LCL204 treatments; conditions: 24 hours treatment
Procedure: Cell lines. The human PCa cell lines DU145, LNCaP, DuPro, and PC-3 were purchased from ATCC (Manassas, Va., USA), and PPC-1 cells were from Dr. Yi Lu at the University of Tennessee (Memphis, Tenn.). All cells were cultured in RPMI 1640 (Mediatech Inc.; Herndon, Va., USA) supplemented with 10% heat-inactivated BGS (Hyclone; Logan, Utah, USA). Cells were maintained in 5% CO2 at 37° C. All experiments were performed in RPMI 1640 supplemented with 2% heat-inactivated BGS.
MTS cytotoxicity assays for LCL204 treatments. Cell viability was determined using the CellTiter 96 AQueous One Solution Cell Proliferation Assay (Promega; Madison, Wis., USA). 1×10^4 cells per well were seeded in 96-well plates overnight. The next day media was removed and replaced with either 100 μl media with vehicle control or media containing LCL204 at desired concentrations. Assays were carried out according to manufacturer's instruction as previously described (60). For experiments using enzyme inhibitors and LCL204, media was removed and replaced with 50 μl media containing vehicle only or indicated inhibitor. Cells were pretreated 1 hour at 37° C. before adding 50 μl media containing vehicle, inhibitor only, LCL204 only (2× concentration), or a combination. The remainder of the assay was carried out as described above.

[4] = tested on: Bak; test: Bak protein level and Bak foci (Western blot, confocal microscopy)
Procedure: (§1) Immunoblot analysis. Cells were seeded in 60mm plates as described above and treated accordingly. Cells were lifted by gently scraping the plates, washed once with ice cold PBS and then lysed in lysis buffer (PBS, 1% Triton X-100, 10% glycerol) containing protease inhibitors pepstatin A (0.5 μg/ml), leupeptin (0.5 μg/ml), aprotinin (5 μg/ml), and PMSF (100 μg/ml) for 10 minutes on ice. Insoluble material was removed by centrifugation at 14,000 rpm for 15 minutes at 4° C. The supernatants were then supplemented with SDS at a final concentration of 2% and stored at −80° C. Protein concentrations were determined using the DC Protein Assay (BioRad Laboratories; Hercules, CA, USA) according to the manufacturer's instructions. 50 μg of protein per sample (unless otherwise indicated) were separated on NuPAGE 4-12% Bis-Tris gels (Invitrogen; Carlsbad, CA, USA) and transferred to nitrocellulose membranes (BioRad). Following transfer, membranes were blocked for 1 hour at room temperature in Tris-buffered saline (TBS) containing 0.1% Tween-20 and 5% nonfat dry milk and incubated overnight at 4° C. with primary antibody at a dilution of 1:2,000(actin), 1:1,000(cytochrome c, COX IV, Bax, Bak, p53, p38, P-p38), 1:500(P-JNK, JNK), 1:250 (AC, p73), or 1:400(LAMP-1, cathepsin B). Overnight incubations were performed in 5% milk in TBS-Tween. Following overnight incubation, membranes were washed three times for 10 minutes each in TBS-Tween and incubated for 1 hour at room temperature with secondary antibody in 5% milk TBS-Tween at a dilution 1:5,000 (goat anti-mouse IgG) or 1:50,000 (goat anti-rabbit). Membranes were then washed three times more and incubated for 5 minutes at room temperature with Super Signal HRP substrate (Pierce Biotechnology Inc.; Rockford, IL, USA).
Confocal Microscopy and Immunocytochemistry. DU145 cells were grown in 4.3 cm^2 chamber slides (Nalge Nunc) and transfected with YFPmito alone or with the dominant-negative inhibitor of Drp1(K38A) (64) using FuGENE6 (Roche; Indianapolis, IN) according to the manufacturer's instructions using 1 μg of total DNA per chamber. 24 hr after transfection and 30 min prior to treatment with 15 μM LCL204, cells were exposed to zVAD-fmk (50 μM). The slides were fixed with 4% paraformaldehyde for 20 min then permeabilized with 0.2% Triton X-100 for 15 min, followed by blocking with 4% bovine serum albumin for 45 min at RT. Cells were probed with rabbit polyclonal 2-14 anti-Bak antibody (1:5000; BioChem) for 2 hr then stained with goat anti-rabbit Alexa Fluor 543 antibodies (1:250; Molecular Probes) for 45 min. After washing, cells were imaged using the 63x objective of an LSM 510 Zeiss confocal microscope.

[5] = tested on: p38 MAPK; test: Immunoblot of phosphorylated p38 MAPK; conditions: PPC-1/pcDNA3 vector control cells
Procedure: as §1, with “Following overnight incubation, membranes were washed three times for 10 minutes each in TBS-Tween and incubated for 1 hour at room temperature with secondary antibody in 5% milk TBS-Tween at a dilution 1:5,000 (goat anti-mouse IgG) or 1:50,000 (goat anti-rabbit). Membranes were then washed three times more and incubated for 5 minutes at room temperature with Super Signal HRP substrate (Pierce Biotechnology Inc.; Rockford, IL, USA).” left out

Compound: CCCCCCCCCCCCCCN[C@H](CO)[C@H](O)c1ccc([N+](=O)[O-])cc1.Cl [LCL204, (1R,2R) D-threo-2-N-Tetradecylamino-1-(4′-nitrophenyl)-1,3-propandiol hydrochloride]
- time within which cytosolic cathepsin B activity increased ([1]; 10 μM, enzyme activity assay): ≤ 30 min
- time within which active cathepsin B was detected in the cytosolic fraction ([1]; Western blot): ≤ 30 min
- AC mRNA levels [2]: no decrease in AC mRNA levels
- cell death [3]: concentration-dependent cell death in the micromolar range
- Bak protein levels over time ([4]; DU145 and PC-3 cells, 10 μM, 12 hours): accumulated Bak protein
- Bak protein levels versus concentration ([4]; DU145 cells, 12-hour treatment): concentration-dependent up-regulation
- Bak foci on the mitochondria membrane ([4]; DU145 cells, 20 hours, confocal microscopy): formation of Bak foci was detected
- Bak and p73 levels ([4]; PPC-1/pcDNA3 cells, 7.5 μM, 5 hours): up-regulation of both Bak and p73 levels
- time by which p38 MAPK phosphorylation was induced [5]: ≤ 90 min
